Experimental data taken from patent US20150343007A1, “EDIBLE COMPOSITION COMPRISING AN EXTRACT OF INULA RACEMOSA AND NARINGIN” (CONOPCO, INC. D/B/A UNILEVER, priority 2012, published 2015).

What follows are compounds tested against T1, human recombinant Dipeptidyl peptidase-IV (DPP-IV) enzyme (Homo sapiens, UniProt P27487) (assay: Invitro DPP-4 Enzyme Assay (Gly-Pro p-NA substrate, absorbance at 405 nm)). Conditions: 4 ng DPP-IV per well, 200 μl/well TRIS-HCl pH 8, 37° C., 1 hr; sample amounts (μg/well) per Table 1; Control 3 = 100% activity.
T1 construct: purchased PROSPEC ISRAEL ENZ 375
Format: biochemical
Method: A 96 well plate (NEST Biotechnology Co. Ltd, Cat No 701001) was taken. In each well of 96 well plate extract of Inula racemosa (as prepared above), Naringin (SIGMA, Cat. No: N1376) and the combination of extract of Inula racemosa and naringin were put in varied concentration as per Table 1. In each well, 4 ng of human recombinant Dipeptidyl peptidase-IV (DPP-IV) enzyme (PROSPEC ISRAEL, Cat. No. ENZ 375) was also added. After that, the final volume was made up to 200 μl/well using TRIS-HCl buffer of pH-8. The TRIS-HCl buffer was prepared by adding 2.42 g of TRIS (Tris hydroxyl methyl amino methane; Supplier: Sisco Research Laboratory ltd, Cat No 2044122) base, 0.372 g of EDTA (SIGMA, Cat No E6758) and 5.644 g of NaCl in 900 mL of autoclaved milli-Q water (Millipore® India) and stirred it till it get dissolved (˜30 minutes). After that the pH of the solution was adjusted to 8.0 using HCl acid and then the volume of the solution was made up to 1000 mL with autoclaved milli-Q water.
The enzyme and combinations of extract of Inula racemosa and naringin were mixed for 1 min using microplate reader (BIO-RAD LAB INDIA, Model No. 680) and incubated in an incubator (Thermo Scientific, Model 3111; conditions: at 37° C.) for 10 minutes. After that the enzymatic reaction was initiated by adding 10 μL/well of the 19 mM of substrate Glycine-Proline para nitroanilide (Gly-Pro p-NA) (this is equivalent to GLP-1). Gly-Pro-p NA is a universally accepted and commercially available substrate for the enzyme DPP-4, due to the lack of availability of commercially available chromogenic GLP-1. We have used Gly-Pro-p NA in the assay which is equivalent to GLP-1. […]
All the above reaction mixture was again incubated for 1 hr in the same incubator under the same condition. […] After this the absorbance was measured at a wavelength of 405 nm using microplate reader (BIO-RAD LAB INDIA, Model No. 680). […]
The % activities of the DPP-4 for the other samples were calculated using the following formula:
The % inhibitions by the samples were then calculated by subtracting the activity from 100.

T1 sequence (P27487 whole entry): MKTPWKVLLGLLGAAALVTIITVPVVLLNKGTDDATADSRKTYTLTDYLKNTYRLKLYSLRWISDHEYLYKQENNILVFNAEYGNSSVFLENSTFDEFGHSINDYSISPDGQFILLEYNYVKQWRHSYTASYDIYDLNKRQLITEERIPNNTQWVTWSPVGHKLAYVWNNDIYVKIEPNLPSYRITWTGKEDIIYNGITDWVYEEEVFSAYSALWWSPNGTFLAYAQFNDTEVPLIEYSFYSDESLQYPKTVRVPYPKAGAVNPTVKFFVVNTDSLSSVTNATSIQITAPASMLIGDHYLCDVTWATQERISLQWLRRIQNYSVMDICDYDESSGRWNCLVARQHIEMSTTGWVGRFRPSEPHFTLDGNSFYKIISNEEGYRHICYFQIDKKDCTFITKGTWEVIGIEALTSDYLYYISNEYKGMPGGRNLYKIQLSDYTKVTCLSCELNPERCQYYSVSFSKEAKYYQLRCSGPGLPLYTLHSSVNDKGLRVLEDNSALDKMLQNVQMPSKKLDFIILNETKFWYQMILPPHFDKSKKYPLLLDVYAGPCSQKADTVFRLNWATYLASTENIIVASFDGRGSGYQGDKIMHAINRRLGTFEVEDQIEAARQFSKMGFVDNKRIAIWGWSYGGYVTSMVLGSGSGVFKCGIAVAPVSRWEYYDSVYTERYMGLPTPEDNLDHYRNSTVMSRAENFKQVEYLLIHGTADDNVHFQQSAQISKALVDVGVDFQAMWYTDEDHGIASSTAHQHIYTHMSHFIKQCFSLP

Structure (SMILES)	% Inhibition
C[C@@H]1OC(OC2C(O)[C@H](O)C(CO)O[C@H]2Oc2cc(O)c3c(c2)O[C@H](c2ccc(O)cc2)CC3=O)[C@H](O)C(O)C1O (single isomer, unassigned) [D, 4,5,7-Trihydroxyflavanone 7-rhamnoglucoside]	18.11%
C[C@@H]1O[C@@H](O[C@H]2[C@H](Oc3cc(O)c4c(c3)O[C@H](c3ccc(O)cc3)CC4=O)O[C@H](CO)[C@@H](O)[C@@H]2O)[C@H](O)[C@H](O)[C@H]1O [B, 4,5,7-Trihydroxyflavanone 7-rhamnoglucoside]	18.54%
C[C@@H]1O[C@@H](O[C@H]2[C@H](Oc3cc(O)c4c(c3)O[C@H](c3ccc(O)cc3)CC4=O)O[C@H](CO)[C@@H](O)[C@@H]2O)[C@H](O)[C@H](O)[C@H]1O [C, 4,5,7-Trihydroxyflavanone 7-rhamnoglucoside]	18.43%
